Data taken from US6461997B1, “Triazole sulfones having herbicidal activity” (Monsanto Technology LLC, priority 1999, dated 2002).

What follows are compounds tested on SASKR (russian thistle) (assay: Pre-emergence herbicidal activity, cool season). Conditions: lowest tested rate with 80% or greater inhibition; rates 300, 100, 30, 10 g/ha; about 14 days.
Assay type: in vivo, Salsola kali
Method: (§1) Tables 5 to 8 summarize results of tests conducted as described below to determine the pre-emergence herbicidal activity, in the form of a GR80 value, of illustrative compounds of this invention. […] Compounds of the invention were typically applied at rates of 300, 100, 30, and 10 g/ha. Where herbicidal activity was evident but 80% inhibition was not achieved at the highest rate tested, an asterisk (*) is shown in the following tables.
(§2) The pre-emergence tests were conducted by the following procedure. Topsoil was sieved to pass through a 1.27 cm screen. Fertilizer was added to the topsoil and the mixture was then sterilized by heating. The topsoil mixture was placed in a pot and compacted to a depth of 1.0 to 1.25 cm from the top of the pot. Seeds of each of several monocotyledonous and dicotyledonous annual plant species were placed on top of the soil. Additional soil was subsequently placed over the seeds to level-fill the pot. A known amount of each test compound dissolved or suspended in an appropriate organic solvent was diluted with a 50:50 mix of acetone and water and applied to the surface of the soil. After treatment the plants were placed in a greenhouse where they received 0.64 cm of overhead irrigation. All subsequent watering consisted of a light overhead mist and/or subirrigation as needed for germination and growth. Tables 5 and 6 below relate to warm season plant species which were placed after pre-emergence treatment in a greenhouse with a 30/21° C. day/night temperature regime. Tables 7 and 8 below relates to cool season plant species placed after pre-emergence treatment in a greenhouse or growth chamber with an 18/13° C. day/night temperature regime.
(§3) Approximately 14 days after planting and treating, the plants were observed and herbicidal efficacy recorded as percent inhibition by comparison with untreated plants.
(§4) The plant species usually regarded as weeds which were utilized in the tests are identified in the tables below according to the following legend, in which “d” indicates a dicotyledonous species and “m” a monocotyledonous species. All monocotyledonous species included in the tests herein are grasses.
For `CN(C)C(=O)n1cnc(S(=O)(=O)C(F)(F)C(F)F)n1` [Example 61], the “Pre-emergence activity GR80, SASKR” value was 100 g/ha.
For `CN(C(=O)n1cnc(S(=O)(=O)C(F)(F)C(F)F)n1)C1CCCCC1` [Example 67], the “Pre-emergence activity GR80, SASKR” value was “[empty]”.
With `CCSC(F)(F)S(=O)(=O)c1ncn(C(=O)N2CCOCC2)n1` [Example 48] the “Pre-emergence activity GR80, SASKR” value was “[empty]”.

What follows are compounds tested on SINAR (wild mustard) (assay: Pre-emergence herbicidal activity, cool season). Conditions: lowest tested rate with 80% or greater inhibition; rates 300, 100, 30, 10 g/ha; about 14 days.
Assay type: in vivo, Sinapis arvensis
Method: as §1, §2, §3, §4
In the case of `CN(C)C(=O)n1cnc(S(=O)(=O)C(F)(F)C(F)F)n1` [Example 61], the “Pre-emergence activity GR80, SINAR” value is reported as 300 g/ha.
With `CN(C(=O)n1cnc(S(=O)(=O)C(F)(F)C(F)F)n1)C1CCCCC1` [Example 67] the “Pre-emergence activity GR80, SINAR” value was “[empty]”.
With `CCSC(F)(F)S(=O)(=O)c1ncn(C(=O)N2CCOCC2)n1` [Example 48] the “Pre-emergence activity GR80, SINAR” value was “[empty]”.

What follows are compounds tested on STEME (common chickweed) (assay: Pre-emergence herbicidal activity, cool season). Conditions: lowest tested rate with 80% or greater inhibition; rates 300, 100, 30, 10 g/ha; about 14 days.
Assay type: in vivo, Stellaria media
Method: as §1, §2, §3, §4
In the case of `CN(C)C(=O)n1cnc(S(=O)(=O)C(F)(F)C(F)F)n1` [Example 61], the “Pre-emergence activity GR80, STEME” value is reported as 300 g/ha.
`CN(C(=O)n1cnc(S(=O)(=O)C(F)(F)C(F)F)n1)C1CCCCC1` [Example 67] was tested, and the “Pre-emergence activity GR80, STEME” value was “[empty]”.
With `CCSC(F)(F)S(=O)(=O)c1ncn(C(=O)N2CCOCC2)n1` [Example 48] the “Pre-emergence activity GR80, STEME” value was 300 g/ha.

What follows are compounds tested on LAMPU (purple deadnettle) (assay: Pre-emergence herbicidal activity, cool season). Conditions: lowest tested rate with 80% or greater inhibition; rates 300, 100, 30, 10 g/ha; about 14 days.
Assay type: in vivo, Lamium purpureum
Method: as §1, §2, §3, §4
With `CN(C)C(=O)n1cnc(S(=O)(=O)C(F)(F)C(F)F)n1` [Example 61] the “Pre-emergence activity GR80, LAMPU” value was 300 g/ha.
In the case of `CN(C(=O)n1cnc(S(=O)(=O)C(F)(F)C(F)F)n1)C1CCCCC1` [Example 67], the “Pre-emergence activity GR80, LAMPU” value is reported as “[empty]”.
In the case of `CCSC(F)(F)S(=O)(=O)c1ncn(C(=O)N2CCOCC2)n1` [Example 48], the “Pre-emergence activity GR80, LAMPU” value is reported as “[empty]”.

Each compound was assayed on SETVI (green foxtail) (assay: Pre-emergence herbicidal activity, cool season). Conditions: GR80 = lowest tested rate (300, 100, 30, 10 g/ha) with 80% or greater inhibition; approx. 14 days after treating; 18/13° C.
Assay type: in vivo, Setaria viridis
Method: as §1, §2, §3, §4
`CN(C)C(=O)n1cnc(S(=O)(=O)C(F)(F)C(F)F)n1` [Example 61] was tested, and the “Pre-emergence activity (GR80) SETVI” value was 300 g/ha.
In the case of `CN(C(=O)n1cnc(S(=O)(=O)C(F)(F)C(F)F)n1)C1CCCCC1` [Example 67], the “Pre-emergence activity (GR80) SETVI” value is reported as 300 g/ha.

The compounds below were run on SETFA (giant foxtail) (assay: Pre-emergence herbicidal activity, warm season). Conditions: GR80 = lowest tested rate (300, 100, 30, 10 g/ha) with 80% or greater inhibition; approx. 14 days after treating; 30/21° C.
Assay type: in vivo, Setaria faberi
Method: as §1, §2, §3, §4
With `CN(C(=O)n1cnc(S(=O)(=O)C(F)(F)C(F)F)n1)C1CCCCC1` [Example 67] the “Pre-emergence activity (GR80) SETFA” value was 300 g/ha.

These compounds were tested on VERPE (creeping speedwell) (assay: Pre-emergence herbicidal activity, cool season). Conditions: lowest tested rate with 80% or greater inhibition; rates 300, 100, 30, 10 g/ha; about 14 days.
Assay type: in vivo, Veronica persicaria
Method: as §1, §2, §3, §4
`CN(C)C(=O)n1cnc(S(=O)(=O)C(F)(F)C(F)F)n1` [Example 61] was tested, and the “Pre-emergence activity GR80, VERPE” value was 100 g/ha.
In the case of `CN(C(=O)n1cnc(S(=O)(=O)C(F)(F)C(F)F)n1)C1CCCCC1` [Example 67], the “Pre-emergence activity GR80, VERPE” value is reported as 100 g/ha.
`CCSC(F)(F)S(=O)(=O)c1ncn(C(=O)N2CCOCC2)n1` [Example 48] was tested, and the “Pre-emergence activity GR80, VERPE” value was “[empty]”.

Each compound was assayed on PANMI (wild proso millet) (assay: Pre-emergence herbicidal activity, warm season). Conditions: GR80 = lowest tested rate (300, 100, 30, 10 g/ha) with 80% or greater inhibition; approx. 14 days after treating; 30/21° C.
Assay type: in vivo, Panicum miliaceum
Method: as §1, §2, §3, §4
With `CN(C)C(=O)n1cnc(S(=O)(=O)C(F)(F)C(F)F)n1` [Example 61] the “Pre-emergence activity (GR80) PANMI” value was 300 g/ha.
For `CN(C(=O)n1cnc(S(=O)(=O)C(F)(F)C(F)F)n1)C1CCCCC1` [Example 67], the “Pre-emergence activity (GR80) PANMI” value was 100 g/ha.

These compounds were tested on ECHCG (barnyardgrass) (assay: Pre-emergence herbicidal activity, warm season). Conditions: GR80 = lowest tested rate (300, 100, 30, 10 g/ha) with 80% or greater inhibition; approx. 14 days after treating; 30/21° C.
Assay type: in vivo, Echinochloa crus-galli
Method: as §1, §2, §3, §4
In the case of `CN(C)C(=O)n1cnc(S(=O)(=O)C(F)(F)C(F)F)n1` [Example 61], the “Pre-emergence activity (GR80) ECHCG” value is reported as 300 g/ha.
With `CN(C(=O)n1cnc(S(=O)(=O)C(F)(F)C(F)F)n1)C1CCCCC1` [Example 67] the “Pre-emergence activity (GR80) ECHCG” value was 300 g/ha.

What follows are compounds tested on POLCO (wild buckwheat) (assay: Pre-emergence herbicidal activity, cool season). Conditions: lowest tested rate with 80% or greater inhibition; rates 300, 100, 30, 10 g/ha; about 14 days.
Assay type: in vivo, Polygonum convolvulus
Method: as §1, §2, §3, §4
`CN(C)C(=O)n1cnc(S(=O)(=O)C(F)(F)C(F)F)n1` [Example 61] was tested, and the “Pre-emergence activity GR80, POLCO” value was “[empty]”.
With `CN(C(=O)n1cnc(S(=O)(=O)C(F)(F)C(F)F)n1)C1CCCCC1` [Example 67] the “Pre-emergence activity GR80, POLCO” value was 300 g/ha.
`CCSC(F)(F)S(=O)(=O)c1ncn(C(=O)N2CCOCC2)n1` [Example 48] was tested, and the “Pre-emergence activity GR80, POLCO” value was 300 g/ha.

The compounds below were run on POROL (common purslane) (assay: Pre-emergence herbicidal activity, warm season). Conditions: GR80 = lowest tested rate (300, 100, 30, 10 g/ha) with 80% or greater inhibition; approx. 14 days after treating; 30/21° C.
Assay type: in vivo, Portulaca oleracea
Method: as §1, §2, §3, §4
With `CN(C)C(=O)n1cnc(S(=O)(=O)C(F)(F)C(F)F)n1` [Example 61] the “Pre-emergence activity (GR80) POROL” value was 300 g/ha.
`CN(C(=O)n1cnc(S(=O)(=O)C(F)(F)C(F)F)n1)C1CCCCC1` [Example 67] was tested, and the “Pre-emergence activity (GR80) POROL” value was 300 g/ha.

These compounds were tested on CHEAL (common lambsquarters) (assay: Pre-emergence herbicidal activity, warm season). Conditions: GR80 = lowest tested rate (300, 100, 30, 10 g/ha) with 80% or greater inhibition; approx. 14 days after treating; 30/21° C.
Assay type: in vivo, Chenopodium album
Method: as §1, §2, §3, §4
With `CN(C)C(=O)n1cnc(S(=O)(=O)C(F)(F)C(F)F)n1` [Example 61] the “Pre-emergence activity (GR80) CHEAL” value was 300 g/ha.
With `CN(C(=O)n1cnc(S(=O)(=O)C(F)(F)C(F)F)n1)C1CCCCC1` [Example 67] the “Pre-emergence activity (GR80) CHEAL” value was 100 g/ha.

Each compound was assayed on SORHA (johnsongrass (seedling)) (assay: Pre-emergence herbicidal activity, warm season). Conditions: GR80 = lowest tested rate (300, 100, 30, 10 g/ha) with 80% or greater inhibition; approx. 14 days after treating; 30/21° C.
Assay type: in vivo, Sorghum halepense
Method: as §1, §2, §3, §4
With `CN(C(=O)n1cnc(S(=O)(=O)C(F)(F)C(F)F)n1)C1CCCCC1` [Example 67] the “Pre-emergence activity (GR80) SORHA” value was 300 g/ha.

The compounds below were run on AMARE (redroot pigweed) (assay: Pre-emergence herbicidal activity, warm season). Conditions: GR80 = lowest tested rate (300, 100, 30, 10 g/ha) with 80% or greater inhibition; approx. 14 days after treating; 30/21° C.
Assay type: in vivo, Amaranthus retroflexus
Method: as §1, §2, §3, §4
For `CN(C(=O)n1cnc(S(=O)(=O)C(F)(F)C(F)F)n1)C1CCCCC1` [Example 67], the “Pre-emergence activity (GR80) AMARE” value was 300 g/ha.

What follows are compounds tested on GALAP (catchweed bedstraw) (assay: Pre-emergence herbicidal activity, cool season). Conditions: lowest tested rate with 80% or greater inhibition; rates 300, 100, 30, 10 g/ha; about 14 days.
Assay type: in vivo, Galium aparine
Method: as §1, §2, §3, §4
In the case of `CN(C)C(=O)n1cnc(S(=O)(=O)C(F)(F)C(F)F)n1` [Example 61], the “Pre-emergence activity GR80, GALAP” value is reported as 100 g/ha.
`CN(C(=O)n1cnc(S(=O)(=O)C(F)(F)C(F)F)n1)C1CCCCC1` [Example 67] was tested, and the “Pre-emergence activity GR80, GALAP” value was 300 g/ha.
In the case of `CCSC(F)(F)S(=O)(=O)c1ncn(C(=O)N2CCOCC2)n1` [Example 48], the “Pre-emergence activity GR80, GALAP” value is reported as 300 g/ha.

Each compound was assayed on CIRAR (canada thistle (seedling)) (assay: Pre-emergence herbicidal activity, warm season). Conditions: GR80 = lowest tested rate (300, 100, 30, 10 g/ha) with 80% or greater inhibition; approx. 14 days after treating; 30/21° C.
Assay type: in vivo, Cirsium arvense
Method: as §1, §2, §3, §4
`CN(C)C(=O)n1cnc(S(=O)(=O)C(F)(F)C(F)F)n1` [Example 61] was tested, and the “Pre-emergence activity (GR80) CIRAR” value was 300 g/ha.

What follows are compounds tested on ALOMY (blackgrass) (assay: Pre-emergence herbicidal activity, cool season). Conditions: GR80 = lowest tested rate (300, 100, 30, 10 g/ha) with 80% or greater inhibition; approx. 14 days after treating; 18/13° C.
Assay type: in vivo, Alopecurus myosuroides
Method: as §1, §2, §3, §4
With `CN(C)C(=O)n1cnc(S(=O)(=O)C(F)(F)C(F)F)n1` [Example 61] the “Pre-emergence activity (GR80) ALOMY” value was 100 g/ha.

What follows are compounds tested on AGSST (creeping bentgrass) (assay: Pre-emergence herbicidal activity, cool season). Conditions: GR80 = lowest tested rate (300, 100, 30, 10 g/ha) with 80% or greater inhibition; approx. 14 days after treating; 18/13° C.
Assay type: in vivo, Agrostis stolonifera
Method: as §1, §2, §3, §4
For `CN(C)C(=O)n1cnc(S(=O)(=O)C(F)(F)C(F)F)n1` [Example 61], the “Pre-emergence activity (GR80) AGSST” value was 100 g/ha.
In the case of `CN(C(=O)n1cnc(S(=O)(=O)C(F)(F)C(F)F)n1)C1CCCCC1` [Example 67], the “Pre-emergence activity (GR80) AGSST” value is reported as 100 g/ha.

Each compound was assayed on DATST (jimsonweed) (assay: Pre-emergence herbicidal activity, warm season). Conditions: GR80 = lowest tested rate (300, 100, 30, 10 g/ha) with 80% or greater inhibition; approx. 14 days after treating; 30/21° C.
Assay type: in vivo, Datura stramonium
Method: as §1, §2, §3, §4
For `CCSC(F)(F)S(=O)(=O)c1ncn(C(=O)N2CCOCC2)n1` [Example 48], the “Pre-emergence activity (GR80) DATST” value was 300 g/ha.
